Laboratory results published in article PMC7119063 (Bioorganic & Medicinal Chemistry, 2005).
pEC50: −log10 of the molar value. “Also recorded” adds a separate entry of the source.

Legend:
[1] = system: SARS-CoV; conditions: cited from earlier work
[2] = molecular target: SARS-CoV 3CL protease (Severe acute respiratory syndrome coronavirus, UniProt P0C6X7); assay type: biochemical
[3] = system: human rhinovirus (HRV) 3C protease; conditions: cited from earlier work
[4] = system: SARS-CoV; assay type: cell-based

SMILES | pEC50 [1] | inhibitory activity against SARS-CoV 3CL protease (in words) [2] | activity to the SARS-CoV in a cell-based assay [1] | inhibition of HRV 3C protease (in words) [3] | concentration at which active as anti-SARS agent (protection from CPE) [4]
CC(C)[C@@H]1NC(=O)[C@H](C)OC(=O)[C@@H](C(C)C)NC(=O)[C@@H](C(C)C)OC(=O)[C@H](C(C)C)NC(=O)[C@H](C)OC(=O)[C@@H](C(C)C)NC(=O)[C@@H](C(C)C)OC(=O)[C@H](C(C)C)NC(=O)[C@H](C)OC(=O)[C@@H](C(C)C)NC(=O)[C@@H](C(C)C)OC1=O [valinomycin] | 6.07 |  |  |  | 
CCOC(=O)C=CC(CC1CCNC1=O)NC(=O)C(CC(=O)C(NC(=O)c1cc(C)on1)C(C)C)Cc1ccc(F)cc1 (centres unmarked) [Compound 1a, Ethyl 4-[2-(4-fluorobenzyl)-6-methyl-5-(5-methyl-3-isoxazolyl)carbonylamino-1,4-dioxoheptylamino]-5-(2-oxo-3-pyrrolidinyl)-2-pentenoate] |  | no inhibitory activity; also recorded: inactive | inactive | potent inhibitor | inactive
